Data as given in BigSolDB 2.1.

O=C1C=CC(=O)O1
solubility (mole fraction)
Settings	278.15 K	283.15 K	288.15 K	293.15 K	298.15 K	303.15 K	308.15 K	313.15 K	318.15 K	323.15 K
in DMF	0.0297	0.0372	0.0466	0.0584	0.0707	0.087	0.104	0.125	0.15	0.176
in acetic acid	0.0156	0.0216	0.0281	0.0369	0.0472	0.0605	0.0767	0.0962	0.119	0.146
in acetone	0.00999	0.0136	0.0191	0.0264	0.0336	0.0453	0.0599	0.0768	0.0977	0.124
in acetonitrile	0.012	0.0173	0.0232	0.0307	0.0408	0.0526	0.0682	0.0873	0.111	0.139
in ethyl acetate	0.00906	0.0125	0.017	0.0219	0.0303	0.0398	0.0518	0.0665	0.0857	0.107
in isopropanol	0.00617	0.00942	0.013	0.0178	0.0241	0.0321	0.043	0.0552	0.0712	0.0909
in methanol	0.0211	0.0282	0.0359	0.0465	0.0582	0.0719	0.0886	0.109	0.132	0.159
in n-butanol	0.00359	0.00539	0.00796	0.0116	0.0168	0.0236	0.033	0.0455	0.0618	0.0828
